# According to ChEMBL document CHEMBL1201862, “PubChem BioAssay data set” (2004):
#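 Growth conditions: 96-well plates. Treatment: test compound, 48 hours, 5 concentrations. Analysis: linear interpolation between bracketing concentrations; unreached endpoints set to highest concentration. At the GI50, growth is halved.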 The source made the active and inactive calls. No stated cut-off is given here; in the data, active = GI50 up to about 1.1 µM and inactive = higher.
# Tests used:
# Test in all cases: inhibition of tumour cell growth, NCI panel, 48 h
# UO-31 = tested on: UO-31
# CCRF-CEM = tested on: CCRF-CEM
# SK-MEL-5 = tested on: SK-MEL-5
# OVCAR-8 = tested on: OVCAR-8
# NCI-H460 = tested on: NCI-H460
# SNB-75 = tested on: SNB-75
# IGROV-1 = tested on: IGROV-1
# SN12C = tested on: SN12C
# A549 = tested on: A549
# Hs-578T = tested on: Hs-578T
# DU-145 = tested on: DU-145
# RXF 393 = tested on: RXF 393
# SNB-19 = tested on: SNB-19
# PC-3 = tested on: PC-3
# NCI/ADR-RES = tested on: NCI/ADR-RES
# M14 = tested on: M14
# BT-549 = tested on: BT-549
# OVCAR-3 = tested on: OVCAR-3
# HCC 2998 = tested on: HCC 2998
# KM12 = tested on: KM12
SMILES,GI50 (UO-31),GI50 (CCRF-CEM),GI50 (SK-MEL-5),GI50 (OVCAR-8),GI50 (NCI-H460),GI50 (SNB-75),GI50 (IGROV-1),GI50 (SN12C),GI50 (A549),GI50 (Hs-578T),GI50 (DU-145),GI50 (RXF 393),GI50 (SNB-19),GI50 (PC-3),GI50 (NCI/ADR-RES),GI50 (M14),GI50 (BT-549),GI50 (OVCAR-3),GI50 (HCC 2998),GI50 (KM12)
O=C(CCCc1ccccn1)c1ccccc1,> 100 µM (inactive),> 100 µM (inactive),> 100 µM (inactive),> 100 µM (inactive),> 100 µM (inactive),> 100 µM (inactive),> 100 µM (inactive),> 100 µM (inactive),> 100 µM (inactive),> 100 µM (inactive),> 100 µM (inactive),> 100 µM (inactive),> 100 µM (inactive),> 100 µM (inactive),> 100 µM (inactive),> 100 µM (inactive),> 100 µM (inactive),> 100 µM (inactive),> 100 µM (inactive),–
Cc1ccc(S(=O)(=O)N2C[C@@H]3CC[C@]4(CO[Si](C)(C)C(C)(C)C)N[C@@H](c5ccccc5)[C@H]2[C@H]34)cc1,33 µM (inactive),43.2 µM (inactive),13.8 µM (inactive),39.7 µM (inactive),26.1 µM (inactive),–,31.3 µM (inactive),19.6 µM (inactive),22.4 µM (inactive),27.4 µM (inactive),45 µM (inactive),14.5 µM (inactive),61.4 µM (inactive),18.2 µM (inactive),25.9 µM (inactive),61.7 µM (inactive),20.4 µM (inactive),32 µM (inactive),18.4 µM (inactive),26.5 µM (inactive)
O=c1oc2ccccc2cc1-c1nc2ccccc2c(=O)[nH]1,> 100 µM (inactive),> 100 µM (inactive),> 100 µM (inactive),> 100 µM (inactive),> 100 µM (inactive),69.3 µM (inactive),> 100 µM (inactive),> 100 µM (inactive),> 100 µM (inactive),> 100 µM (inactive),> 100 µM (inactive),> 100 µM (inactive),> 100 µM (inactive),> 100 µM (inactive),> 100 µM (inactive),> 100 µM (inactive),77.8 µM (inactive),–,> 100 µM (inactive),> 100 µM (inactive)
CNc1nc(N)c(N=O)c(Nc2ccc(Br)cc2)n1,9.57 µM (inactive),81.8 µM (inactive),> 100 µM (inactive),> 100 µM (inactive),> 100 µM (inactive),68.5 µM (inactive),> 100 µM (inactive),> 100 µM (inactive),> 100 µM (inactive),5.35 µM (inactive),> 100 µM (inactive),> 100 µM (inactive),> 100 µM (inactive),> 100 µM (inactive),> 100 µM (inactive),–,> 100 µM (inactive),> 100 µM (inactive),> 100 µM (inactive),> 100 µM (inactive)
COC1=C(OC)C(=O)C(Cc2c(Cl)nc3sccn23)=C(C)C1=O,10.6 µM (inactive),2.02 µM (inactive),4.14 µM (inactive),13.5 µM (inactive),12.8 µM (inactive),–,15.7 µM (inactive),13.4 µM (inactive),11.6 µM (inactive),11.4 µM (inactive),13.5 µM (inactive),16.1 µM (inactive),13.5 µM (inactive),14.2 µM (inactive),5.89 µM (inactive),11.7 µM (inactive),14.4 µM (inactive),12.7 µM (inactive),15.7 µM (inactive),10.4 µM (inactive)
c1ccc2c(c1)N=c1cc3c(cc1N2)=NC12CCCCC1CC1=C(CCCC1)N32 (stereo unspecified),–,2.12 µM (inactive),1.81 µM (inactive),3.21 µM (inactive),6.17 µM (inactive),2.59 µM (inactive),3.4 µM (inactive),2.36 µM (inactive),3.61 µM (inactive),3.82 µM (inactive),> 10 µM (inactive),1.39 µM (inactive),5.25 µM (inactive),2.76 µM (inactive),4.57 µM (inactive),2.52 µM (inactive),2.61 µM (inactive),1.74 µM (inactive),6.76 µM (inactive),2.37 µM (inactive)
Nc1ncc(C=O)c(NCC2(CO)CCC2)n1,27.5 µM (inactive),38.4 µM (inactive),19.9 µM (inactive),51.1 µM (inactive),50 µM (inactive),66.1 µM (inactive),41.5 µM (inactive),> 100 µM (inactive),37.5 µM (inactive),41.1 µM (inactive),33 µM (inactive),28.4 µM (inactive),–,82.4 µM (inactive),65.9 µM (inactive),–,> 10 µM (inactive),50.6 µM (inactive),> 100 µM (inactive),83.9 µM (inactive)
CC(C)(C)C1CCC2c3c([nH]c4ccccc34)C3C(=O)N(c4ccc(C(=O)O)cc4)C(=O)C3C2C1 (stereo unspecified),16.8 µM (inactive),3.69 µM (inactive),13.1 µM (inactive),12 µM (inactive),16.3 µM (inactive),–,18.5 µM (inactive),12.8 µM (inactive),12.2 µM (inactive),17.6 µM (inactive),17.5 µM (inactive),10.9 µM (inactive),16.8 µM (inactive),13.4 µM (inactive),16.7 µM (inactive),16.8 µM (inactive),14.5 µM (inactive),12.4 µM (inactive),15.6 µM (inactive),–
C[C@@H]1OC(=O)C[C@H]2CC(=O)N(CCC3CN(C(=O)OCc4ccccc4)c4ccccc43)C[C@@H]21 (stereo partly specified),> 100 µM (inactive),–,> 100 µM (inactive),> 100 µM (inactive),> 100 µM (inactive),> 100 µM (inactive),> 100 µM (inactive),–,> 100 µM (inactive),> 100 µM (inactive),> 100 µM (inactive),> 100 µM (inactive),> 100 µM (inactive),> 100 µM (inactive),> 100 µM (inactive),> 100 µM (inactive),> 100 µM (inactive),> 100 µM (inactive),> 100 µM (inactive),> 100 µM (inactive)
CC1(O)CC(=O)c2c(cc3ccc(-c4c5c(c(O)c6c(O)cccc46)C(=O)CC(C)(O)C5)c(O)c3c2O)C1 (stereo unspecified),0.212 µM (active),0.38 µM (active),0.187 µM (active),0.332 µM (active),0.16 µM (active),0.129 µM (active),0.348 µM (active),1.39 µM (inactive),0.365 µM (active),0.265 µM (active),0.33 µM (active),< 0.01 µM (active),0.18 µM (active),0.0834 µM (active),0.441 µM (active),0.406 µM (active),0.347 µM (active),0.0953 µM (active),–,0.0278 µM (active)
COC(=O)c1ccc2cc(O)c(O)cc2c1,17.4 µM (inactive),18.9 µM (inactive),22.1 µM (inactive),33 µM (inactive),–,90.8 µM (inactive),26.7 µM (inactive),55.2 µM (inactive),36.9 µM (inactive),22.8 µM (inactive),53.2 µM (inactive),48.2 µM (inactive),22.8 µM (inactive),32.4 µM (inactive),25.6 µM (inactive),26.3 µM (inactive),21.2 µM (inactive),31.1 µM (inactive),> 68.9 µM (inactive),30.9 µM (inactive)
